Reference: patent EP4806435A1, “DIHYDROCHROMENE-DERIVATIVE-CONTAINING THERAPEUTIC AGENT FOR CANCER” (Sumitomo Pharma Co., Ltd., priority 2023, dated 2025)
Read-outs that look alike come from different tables or passages of the source.

Assay: Phase 1 clinical trial: plasma pharmacokinetics
Format: in vivo, human
Conditions: for Tmax / half-life / Cmax / AUC / AUC(0-t): human, plasma, oral; for half-life: read-out: Effective T1/2 (converted)
Experimental: Summary statistics based on preliminary data were obtained for the pharmacokinetics of Compound 1 in patients receiving once-daily doses ranging from 20 mg to 240 mg (Table 5). The mean plasma concentration-time curves of Compound 1 in the once-daily dose groups ranging from 20 mg to 240 mg are shown in Figure 11. In this study, one cycle consists of 28 days, and Cycle 1 Day 1 refers to Day 1 of the first cycle. […] Accumulation was observed after repeated administration. […] Based on these accumulation ratios, the half-life of Compound 1 was estimated to be approximately 4 days. Based on the currently available data, plasma concentrations are considered to have reached steady state by Day 15.
Summary statistics based on preliminary data were obtained for the pharmacokinetics of Compound 1 in patients in the 20 mg QD, 40 mg QD, 80 mg QD, 120 mg QD, 180 mg QD, 240 mg QD, 360 mg QD, and 480 mg daily (240 mg BID) dose groups (Table 6). The mean plasma concentration-time curves of Compound 1 in the 20 mg QD to 480 mg daily (240 mg BID) dose groups are shown in Figure 12 (in Figure 12, Compound 1 is denoted as "DSP-0390"). In this study, one cycle consists of 28 days, and Cycle 1 Day 1 refers to Day 1 of the first cycle. […] The median Tmax ranged from 2 to 8 hours. Accumulation was observed after repeated administration, and assuming linearity based on the observed accumulation ratios, the estimated elimination half-life was considered to be on the order of several days (approximately 1 to 6 days) (data cut-off: March 2024).

[1] = repeated administration, 20 mg to 240 mg once daily, cut-off April 2023

In the case of `CC1(C)Oc2cc(Cl)ccc2[C@@H]2OCC3(CCN(CCn4ccnc4)CC3)C[C@H]21` [Compound 1, (4'aR,10'bR)-8'-chloro-1-[2-(1H-imidazol-1-yl)ethyl]-5',5'-dimethyl-4'a,10'b-dihydro-2'H,4'H,5'H-spiro[piperidine-4,3'-pyrano[3,2-c][1]benzopyran] diphosphate], the Tmax (180 mg, Cycle 2 Day 1, 180 mg, QD, cut-off April 2023, read-out: Tmax (median)) is reported as 7 h, the half-life (240 mg, 240 mg QD, cut-off March 2024) is reported as 45.6 h and the half-life (240 mg, 480 mg (240 mg BID), cut-off March 2024) is reported as 16.8 h. For the same compound, the Cmax (240 mg, Cycle 1, Day 1, 240 mg QD, cut-off March 2024, read-out: Cmax) was 177 ng/mL, the Tmax (240 mg, Cycle 1, Day 1, 240 mg QD, cut-off March 2024, read-out: Tmax [a] median value) was 2 h and the AUC (240 mg, Cycle 1, Day 1, 240 mg QD, tau = 24 hours, cut-off March 2024, read-out: AUCtau [b]) was 1620 ng·h/mL. For the same compound, the Cmax (240 mg, Cycle 1, Day 1, 480 mg (240 mg BID), cut-off March 2024, read-out: Cmax) was 143 ng/mL, the Tmax (240 mg, Cycle 1, Day 1, 480 mg (240 mg BID), cut-off March 2024, read-out: Tmax [a] median value) was 4 h and the AUC (240 mg, Cycle 1, Day 1, 480 mg (240 mg BID), n=1, tau = 12 hours, cut-off March 2024, read-out: AUCtau [b]) was 1980 ng·h/mL. For the same compound, the AUC(0-t) (240 mg, Cycle 1 Day 1, 240 mg, QD, cut-off April 2023, read-out: AUC0-24 (geometric mean)) was 1480 ng·h/mL, the AUC(0-t) (240 mg, Cycle 1 Day 1, 240 mg, QD, cut-off April 2023, read-out: AUC0-24 (mean)) was 1510 ng·h/mL and the AUC(0-t) (240 mg, Cycle 1 Day 1, 240 mg, QD, cut-off April 2023, read-out: AUC0-24 (median)) was 1620 ng·h/mL. The Cmax (240 mg, Cycle 1 Day 1, 240 mg, QD, cut-off April 2023, read-out: Cmax (geometric mean)) was 145 ng/mL, the Cmax (240 mg, Cycle 1 Day 1, 240 mg, QD, cut-off April 2023, read-out: Cmax (mean)) was 153 ng/mL and the Cmax (240 mg, Cycle 1 Day 1, 240 mg, QD, cut-off April 2023, read-out: Cmax (median)) was 148 ng/mL. The Tmax (240 mg, Cycle 1 Day 1, 240 mg, QD, cut-off April 2023, read-out: Tmax (mean)) was 3 h, the Tmax (240 mg, Cycle 1 Day 1, 240 mg, QD, cut-off April 2023, read-out: Tmax (median)) was 2 h and the Cmax (240 mg, Cycle 2, Day 1, 240 mg QD, cut-off March 2024, read-out: Cmax,ss) was 316 ng/mL. For the same compound, the Tmax (240 mg, Cycle 2, Day 1, 240 mg QD, cut-off March 2024, read-out: Tmax,ss [a] median value) was 5 h, the AUC (240 mg, Cycle 2, Day 1, 240 mg QD, tau = 24 hours, cut-off March 2024, read-out: AUCtau,ss [b]) was 5330 ng·h/mL and the Cmax (240 mg, Cycle 2, Day 1, 480 mg (240 mg BID), cut-off March 2024, read-out: Cmax,ss) was 346 ng/mL. For the same compound, the Tmax (240 mg, Cycle 2, Day 1, 480 mg (240 mg BID), cut-off March 2024, read-out: Tmax,ss [a] median value) was 7 h, the AUC (240 mg, Cycle 2, Day 1, 480 mg (240 mg BID), n=1, tau = 12 hours, cut-off March 2024, read-out: AUCtau,ss [b]) was 3180 ng·h/mL and the AUC(0-t) (240 mg, Cycle 2 Day 1, 240 mg, QD, N=1, cut-off April 2023, read-out: AUC0-24 (geometric mean)) was 6670 ng·h/mL. It also gave an AUC(0-t) (240 mg, Cycle 2 Day 1, 240 mg, QD, N=1, cut-off April 2023, read-out: AUC0-24 (mean)) of 6670 ng·h/mL, an AUC(0-t) (240 mg, Cycle 2 Day 1, 240 mg, QD, N=1, cut-off April 2023, read-out: AUC0-24 (median)) of 6670 ng·h/mL and a Cmax (240 mg, Cycle 2 Day 1, 240 mg, QD, cut-off April 2023, read-out: Cmax (geometric mean)) of 359 ng/mL. The Cmax (240 mg, Cycle 2 Day 1, 240 mg, QD, cut-off April 2023, read-out: Cmax (mean)) was 360 ng/mL, the Cmax (240 mg, Cycle 2 Day 1, 240 mg, QD, cut-off April 2023, read-out: Cmax (median)) was 360 ng/mL and the Tmax (240 mg, Cycle 2 Day 1, 240 mg, QD, cut-off April 2023, read-out: Tmax (mean)) was 7 h. It also gave a Tmax (240 mg, Cycle 2 Day 1, 240 mg, QD, cut-off April 2023, read-out: Tmax (median)) of 7 h, a half-life (360 mg, 360 mg QD, cut-off March 2024) of 24 h and a Cmax (360 mg, Cycle 1, Day 1, 360 mg QD, cut-off March 2024, read-out: Cmax) of 359 ng/mL. For the same compound, the Tmax (360 mg, Cycle 1, Day 1, 360 mg QD, cut-off March 2024, read-out: Tmax [a] median value) was 4 h, the AUC (360 mg, Cycle 1, Day 1, 360 mg QD, tau = 24 hours, cut-off March 2024, read-out: AUCtau [b]) was 4110 ng·h/mL and the Cmax (360 mg, Cycle 2, Day 1, 360 mg QD, cut-off March 2024, read-out: Cmax,ss) was 489 ng/mL. The Tmax (360 mg, Cycle 2, Day 1, 360 mg QD, cut-off March 2024, read-out: Tmax,ss [a] median value) was 4 h, the AUC (360 mg, Cycle 2, Day 1, 360 mg QD, tau = 24 hours, cut-off March 2024, read-out: AUCtau,ss [b]) was 8490 ng·h/mL and the AUC(0-t) (Cycle 1 Day 1, 20 mg to 240 mg once daily, cut-off April 2023, read-out: geometric mean of AUC0-24, range over all dose groups) was 76 to 1480 ng·h/mL. It also gave a Cmax (Cycle 1 Day 1, 20 mg to 240 mg once daily, cut-off April 2023, read-out: geometric mean of Cmax, range over all dose groups) of 4 to 145 ng/mL, a Tmax (Cycle 1 Day 1, 20 mg to 240 mg once daily, cut-off April 2023, read-out: median Tmax, range over all dose groups) of 2 to 8 h and an AUC(0-t) (Cycle 2 Day 1, 20 mg to 240 mg once daily, cut-off April 2023, read-out: geometric mean of AUC0-24, range over all dose groups) of 556 to 6670 ng·h/mL. For the same compound, the Cmax (Cycle 2 Day 1, 20 mg to 240 mg once daily, cut-off April 2023, read-out: geometric mean of Cmax, range over all dose groups) was 27.7 to 359 ng/mL, the Tmax (Cycle 2 Day 1, 20 mg to 240 mg once daily, cut-off April 2023, read-out: median Tmax, range over all dose groups) was 2 to 7 h and the “plasma concentrations reached steady state” value (once-daily dosing, cut-off April 2023) was ≤ 15 days. The “dose dependence of exposure” value (range of 20 mg to 360 mg QD) was “increased in a dose-dependent manner”, the “mean accumulation ratio for AUC0-24, range over dose groups” value [1] was 3.9-8.6 and the “mean accumulation ratio for Cmax, range over dose groups” value [1] was 2.6-6.2.
